According to patent US20230096028A1, “BICYCLIC HETEROCYCLYL COMPOUNDS AND USES THEREOF” (Revolution Medicines, Inc., priority 2019, published 2023):

Experiments:
SOS1 = target: T1, SOS1 (Homo sapiens, UniProt Q07889); assay: Bodipy-FL-GTP Association Assay (SOS1-mediated exchange of KRAS-4B:GDP to KRAS-4B:GTP); assay type: biochemical; details: SOS1-mediated BODIPY FL GTP exchange on KRAS-4B, 22° C.
T1 construct: SOS1 (Cytoskeleton Inc., Cat. CS-GE02); purchased Cytoskeleton Inc. CS-GE02
T1 sequence (Q07889 564-1049 limits assumed): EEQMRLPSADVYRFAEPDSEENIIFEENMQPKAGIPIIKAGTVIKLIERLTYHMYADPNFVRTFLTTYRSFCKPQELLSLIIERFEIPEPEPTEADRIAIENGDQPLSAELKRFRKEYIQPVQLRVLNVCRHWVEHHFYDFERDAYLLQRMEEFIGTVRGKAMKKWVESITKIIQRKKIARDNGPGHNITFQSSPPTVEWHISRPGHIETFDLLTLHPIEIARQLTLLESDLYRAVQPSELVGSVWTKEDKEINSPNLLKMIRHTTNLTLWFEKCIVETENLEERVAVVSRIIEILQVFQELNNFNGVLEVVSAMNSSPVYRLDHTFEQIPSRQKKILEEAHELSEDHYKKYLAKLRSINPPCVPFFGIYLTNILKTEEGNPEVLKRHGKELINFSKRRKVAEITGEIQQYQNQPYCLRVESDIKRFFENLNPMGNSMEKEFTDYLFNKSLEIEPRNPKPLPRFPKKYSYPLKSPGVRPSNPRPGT
Method: A low IC50 value for a given compound is indicative of high potency of said compound in inhibiting the guanine nucleotide exchange factor (GEF) activity of SOS1 on KRAS-4B in this assay setting.
Reagents: BODIPY FL GTP (ThermoFisher Scientific, Cat. G12411); KRAS4-B (Cytoskeleton Inc., Cat. CSRS03); SOS1 (Cytoskeleton Inc., Cat. CS-GE02); 2×Assay Buffer: 40 mM Tris-HCl, pH 7.5; 100 mM NaCl; 20 mM MgCl2; 0.1 mg/mL BSA; 0.02% NP-40
Assay Procedure: Test compounds were dissolved in DMSO to create 20 mM master stocks. The stocks were diluted in a 3× dilution series in 100% DMSO to achieve 100× compound stocks. A 1 μl spot of each test compound stock was delivered to two adjacent wells of a 96-well assay plate prior to running the assay. Reaction Mix preparation: The following were mixed in order at room temperature to obtain the “Reaction Mix” (5.75 mL 2× Exchange Buffer; 3.22 mL MilliQ ddH2O; 3 μL 5 mM BODIPY FL GTP; 230 μL 50 μM KRAS-4B; 9.203 mL Total volume. Reaction initiation: 80 μL of Reaction Mix was pipetted into each well of a half-area black 96-well plate (Corning, Cat. 3686) containing either a 1 μL spot of DMSO or a 1 μL spot test compound at the concentrations listed above. 20 μL of 1 μM SOS1 was then added to each well to initiate the reaction. For the no GEF control wells this was replaced with 1× exchange buffer. Kinetic measurement: The reaction was monitored in a SpectraMax M2 Microplate Reader (Molecular Devices) under the following protocol: 5 second rapid circular mixing before first read; 61 readings, 30 seconds apart; Assay temperature: 22° C.; Excitation wavelength: 485 nm; Emission wavelength: 513 nm. Data Analysis: The Vmax values for the SOS1-mediated BODIPY FL GTP exchange curves in the presence of test compounds were normalized to the most dilute test sample columns or DMSO only control wells to give the % Activity for each concentration of test compound. Plots of % Activity vs. the Log 10 of the compound concentration were fit by non-linear regression to a 4-parameter logistic model.

[1] = target: T2, SOS1 catalytic domain (residues 564-1049) (Homo sapiens, UniProt Q07889); assay: Mode of Action Assay: inhibition of SOS1 nucleotide exchange activity (SOS1 TR-FRET IC50 Assay)
T2 sequence (Q07889 564-1049): T1 sequence (Q07889 564-1049 limits assumed)

[2] = target: T2, SOS1 catalytic domain (residues 564-1049); assay: Potency Assay: binding affinity to SOS1 using Surface Plasmon Resonance (SPR); set-up: SOS1 catalytic domain (residues 564-1049) immobilized on a sensor chip; details: immobilized SOS1 catalytic domain (residues 564-1049), read-out: SOS1 SPR Equilibrium Kd
In short: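 Kd was obtained by plotting binding response, taken just before association ended, versus compound concentration on a Biacore 8K. Compounds flowed at 50 μL/min over streptavidin-captured avi-SOS1 catalytic domain (~6000 RU), followed by buffer dissociation; HEPES 0.01 M/NaCl 0.15 M/0.05% P20 buffer, double-referenced.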

[3] = tested on: PC-9 cells (EGFR Ex19Del); assay: Potency Assay: pERK (SOS1 pERK IC50 Assay, AlphaLISA SureFire Ultra p-ERK1/2); assay type: cell-based; details: Homo sapiens; PC-9 cells (EGFR Ex19Del), 1 hour incubation, AlphaLISA p-ERK1/2; read-out: SOS1 pERK IC50
In short: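 Cellular pERK1/2 by AlphaLISA SureFire Ultra after 1 h compound exposure (37° C., highest concentration 10 μM, 3-fold steps, duplicates) of EGFR Ex19Del PC-9 cells seeded the day before. A 4-parameter fit of signal versus log concentration gives IC50.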

Row | SMILES | IC50 (SOS1) | further results
1 | Cc1nc2c(c(N[C@H](C)c3cc(N)cc(C(F)(F)F)c3)n1)CN(C(=O)N1CCOCC1)CC2 [Example 2, N-[(1R)-1-[3-amino-5-(trifluoromethyl)phenyl]ethyl]-2-methyl-6-(morpholine-4-carbonyl)-5H,6H,7H,8H-pyrido[4,3-d]pyrimidin-4-amine] | 1000 to 5000 nM | 
2 | C[C@@H](Nc1nc(Cl)nc2c1CN(C(=O)C1CCOC1)C2)c1cc(N)cc(C(F)(F)F)c1 (stereo partly drawn) [Example 5, N-[(1R)-1-[3-amino-5-(trifluoromethyl)phenyl]ethyl]-2-chloro-6-(oxolane-3-carbonyl)-5H,6H,7H-pyrrolo[3,4-d]pyrimidin-4-amine] | < 1000 nM | 
3 | C[C@@H](Nc1nc(Cl)nc2c1CN([C@H]1CC[C@@H](O)CC1)C2)c1cc(N)cc(C(F)(F)F)c1 [Example 8, cis-4-(4-{[(1R)-1-[3-amino-5-(trifluoromethyl)phenyl]ethyl]amino}-2-chloro-5H,6H,7H-pyrrolo[3,4-d]pyrimidin-6-yl)cyclohexan-1-ol] | > 5000 nM | 
4 | C[C@@H](Nc1nc(Cl)nc2c1CN([C@H]1CC[C@@H](C(=O)N(C)C)CC1)C2)c1cc(N)cc(C(F)(F)F)c1 [Example 10, cis-4-(4-{[(1R)-1-[3-amino-5-(trifluoromethyl)phenyl]ethyl]amino}-2-chloro-5H,6H,7H-pyrrolo[3,4-d]pyrimidin-6-yl)-N,N-dimethylcyclohexane-1-carboxamide] | 1000 to 5000 nM | 
5 | Cc1nc2c(c(N[C@H](C)c3cc(N)cc(C(F)(F)F)c3)n1)CN(C(=O)[C@H]1CCOC1)CC2 [Example 6, N-[(1R)-1-[3-amino-5-(trifluoromethyl)phenyl]ethyl]-2-methyl-6-(oxolane-3-carbonyl)-5H,6H,7H,8H-pyrido[4,3-d]pyrimidin-4-amine] | 1000 to 5000 nM | 
6 | COc1nc2c(c(N[C@H](C)c3cc(N)cc(C(F)(F)F)c3)n1)CN(C(=O)N1CCOCC1)C2 [Example 14] | < 1000 nM | 
7 | C[C@@H](Nc1nc(O)nc2c1CN(C(=O)N1CCOCC1)C2)c1cc(N)cc(C(F)(F)F)c1 [Example 15] | 1000 to 5000 nM | 
8 | Cc1nc2c(c(N[C@H](C)c3cc(N)cc(C(F)(F)F)c3)n1)CN(CC1CCOC1)C2 (stereo partly drawn) [Example 13] | 1000 to 5000 nM | 
9 | Cc1nc2c(c(N[C@H](C)c3cc(N)cc(C(F)(F)F)c3)n1)CN(C(=O)C1CCN(C)CC1)C2 [Example 21] | < 1000 nM | 
10 | C[C@@H](Nc1nc(Cl)nc2c1CN(C(=O)C1CCN(C)CC1)C2)c1cc(N)cc(C(F)(F)F)c1 [Example 18] | < 1000 nM | 
11 | Cc1nc2c(c(N[C@H](C)c3cc(N)cc(C(F)(F)F)c3)n1)CN(CC1CCOC1)CC2 (stereo partly drawn) [Example 12] | < 1000 nM | 
12 | C[C@@H](Nc1nc(Cl)nc2c1CN(C(=O)N1CCOCC1)CC2)c1cc(N)cc(C(F)(F)F)c1 [Example 3, N-[(1R)-1-[3-amino-5-(trifluoromethyl)phenyl]ethyl]-2-chloro-6-(morpholine-4-carbonyl)-5H,6H,7H,8H-pyrido[4,3-d]pyrimidin-4-amine] | < 1000 nM | 
13 | C[C@@H](Nc1ncnc2c1CN(C(=O)N1CCOCC1)C2)c1cc(N)cc(C(F)(F)F)c1 [Example 16] | < 1000 nM | 
14 | C[C@@H](Nc1nc(Cl)nc2c1CN([C@H]1CC[C@H](C(=O)N(C)C)CC1)C2)c1cc(N)cc(C(F)(F)F)c1 [Example 19] | 1000 to 5000 nM | 
15 | Cc1nc2c(c(N[C@H](C)c3cc(N)cc(C(F)(F)F)c3)n1)CN(C(=O)N1CCOCC1)C2 [Example 4, N-[(1R)-1-[3-amino-5-(trifluoromethyl)phenyl]ethyl]-2-methyl-6-(morpholine-4-carbonyl)-5H,6H,7H-pyrrolo[3,4-d]pyrimidin-4-amine] | < 1000 nM | 
16 | C[C@@H](Nc1nc(Cl)nc2c1CN([C@H]1CC[C@H](O)CC1)C2)c1cc(N)cc(C(F)(F)F)c1 [Example 9, trans-4-(4-{[(1R)-1-[3-amino-5-(trifluoromethyl)phenyl]ethyl]amino}-2-chloro-5H,6H,7H-pyrrolo[3,4-d]pyrimidin-6-yl)cyclohexan-1-ol] | > 5000 nM | 
17 | C[C@@H](Nc1nc(Cl)nc2c1CN(CC1CCOC1)C2)c1cc(N)cc(C(F)(F)F)c1 (stereo partly drawn) [Example 20] | < 1000 nM | 
18 | C[C@@H](Nc1ncnc2c1CN(C(=O)C1CCN(C)CC1)C2)c1cc(N)cc(C(F)(F)F)c1 [Example 17] | < 1000 nM | 
19 | C[C@@H](Nc1nc(Cl)nc2c1CCN(C(=O)C1CCOC1)CC2)c1cc(N)cc(C(F)(F)F)c1 (stereo partly drawn) [Example 7, N-[(1R)-1-[3-amino-5-(trifluoromethyl)phenyl]ethyl]-2-chloro-7-(oxolane-3-carbonyl)-5H,6H,7H,8H,9H-pyrimido[4,5-d]azepin-4-amine] | 1000 to 5000 nM | 
20 | C[C@@H](Nc1nc(Cl)nc2c1CCN(CC1CCOC1)CC2)c1cc(N)cc(C(F)(F)F)c1 (stereo partly drawn) [Example 11] | 1000 to 5000 nM | 
21 | C[C@@H](Nc1nc(Cl)nc2c1CN(C(=O)N1CCOCC1)C2)c1cc(N)cc(C(F)(F)F)c1 [Example 1, N-[(1R)-1-[3-amino-5-(trifluoromethyl)phenyl]ethyl]-2-chloro-6-(morpholine-4-carbonyl)-5H,6H,7H-pyrrolo[3,4-d]pyrimidin-4-amine] | < 1000 nM | 
22 | C[C@@H](Nc1nc(Cl)nc2c1CN(C(=O)N1CCOCC1)C2)c1cccc2c(F)coc12 [Example 468, [2-chloro-4-[[(1R)-1-(3-fluorobenzofuran-7-yl)ethyl]amino]-5,7-dihydropyrrolo[3,4-d]pyrimidin-6-yl]-morpholino-methanone] |  | IC50 [1]: < 1000 nM; Kd [2]: < 400 nM; IC50 [3]: < 1000 nM
23 | C[C@@H](Nc1nc(Cl)nc2c1CN(C(=O)N1CCNC3(CC3)C1)C2)c1cccc(C(F)(F)F)c1 [Example 374] |  | IC50 [1]: < 1000 nM; Kd [2]: < 400 nM; IC50 [3]: < 1000 nM
24 | Cc1c([C@@H](C)Nc2nc(Cl)nc3c2CN(C(=O)N2CCOCC2)C3)cccc1C(F)(F)F [Example 477, 2-chloro-N-[(1R)-1-[2-methyl-3-(trifluoromethyl)phenyl]ethyl]-6-(morpholine-4-carbonyl)-5H,6H,7H-pyrrolo[3,4-d]pyrimidin-4-amine] |  | IC50 [1]: < 1000 nM; Kd [2]: < 400 nM; IC50 [3]: < 1000 nM
25 | C[C@@H](Nc1nc(Cl)nc2c1CN(C(=O)c1ccc(-n3ccnc3)cn1)CC2)c1cc(N)cc(C(F)(F)F)c1 [Example 250] |  | IC50 [1]: > 1000 nM; Kd [2]: > 400 nM; IC50 [3]: > 1000 nM
26 | CNCc1ccccc1-c1cnc(C(C)Nc2nc(Cl)nc3c2CN(C(=O)N2CCOCC2)C3)s1 (stereo not drawn) [Example 31] |  | IC50 [1]: > 1000 nM; Kd [2]: < 400 nM; IC50 [3]: > 1000 nM
